Assay results published in US20240238417A1, “METHODS OF PRODUCING TUMOR VACCINES AND USES THEREOF” (priority 2021, published 2024).

What was measured:
[1] = pH of cell suspension after ex-vivo gNO treatment of tumor cells; format: physicochemical; settings: ex-vivo treatment of tumor cells with gNO
[2] = tested on: B16.F10 cells; assay: XTT viability of B16.F10 cells after gas exposure in chamber; format: cell-based; settings: 10,000 ppm-25,000 ppm gNO for 3-15 minutes
Experimental: (§1) In vitro systems: One system involves a direct exposure of cancer cells to gNO in 96-well plate. Gaseous NO at 150 ppm-50,000 ppm was delivered at 0.3 LPM for 10 seconds—3 minutes. In another system, cancer cells were exposed to gNO in a box made of acrylic glass. Gaseous NO at 10,000-50,000 ppm was delivered at 0.9 LPM for 10 seconds—15 minutes.
(§2) The exposure of the cancer cells to gNO was done after removing the cell culture medium.
(§3) Immediately after gas exposure, cell culture medium was added, and the cells were incubated at a 37° C. and 5% CO2 incubator over-night. To test cell viability, XTT assay and Annexin V-Propidium Iodide assays were performed, according to known protocols.
(§4) B16.F10 cells were prepared in DMEM medium and suspended in 96-well plates. The plates were placed inside an approx. 2 liter exposure chamber. The plates were exposed to the gas by filling the chamber with gNO for 10 seconds, or 1, 3, 9 or 15 minutes. After exposure, the plates were placed in a 5% CO2, 37° C. incubator for an overnight incubation and the viability of the cells was tested by XTT assay.

[3] = tested on: 4T1 cells; assay: XTT viability of 4T1 cells after direct gas exposure in 96-well plate; format: cell-based, mouse
Text: Tumor celllines: The mouse colon carcinoma cell line, CT26WT, was cloned from CT26, an N-nitroso-N-methylurethane-induced, undifferentiated colon carcinoma cell line. The mouse mammary tumor cell line, 4T1, is a 6-thioguanine resistant cell line. When injected into BALB/c mice, 4T1 spontaneously produces highly metastatic tumors that can metastasize to the lung, liver, lymph nodes and brain while the primary tumor is growing in situ. […] Panc 02.03 is a pancreatic adenocarcinoma epithelial cell line derived in 1995 from a primary tumor removed from the head-of-the-pancreas of […] with pancreatic adenocarcinoma. CT26, 4T1 and Panc 02.03 cell lines were grown in RPMI based media (ATCC 30-2001) supplemented with fetal bovine serum and pen-strep (both from Biological Industries). The LLC1/LU2 cell line was grown in DMEM based media (ATCC 30-2002) supplemented with fetal bovine serum and pen-strep (Biological industries). The B16.F10 cell lines was grown in DMEM based media (ATCC 30-2002) supplemented with fetal bovine serum and pen-strep (Biologicalindustries).
as §1, §2, §3
The effect of continuous gaseous nitric oxide (gNO) at 150 ppm, 4,000 ppm, 10,000 ppm, or 50,000 ppm, compared to air (control), on the survival of 4T1 cancer cell line was tested. 4T1 cells were prepared in RPMI medium and suspended in six 96-well plates. […]

[4] = tested on: LLC1 cells; assay: Annexin V-Propidium Iodide apoptosis-necrosis assay of LLC1 cells; format: cell-based; settings: 20,000 ppm or 50,000 ppm gNO for 3 minutes, overnight incubation
Experimental: as §3
In an additional set of experiments, the plates were exposed to the gas (at 20,000 ppm or 50,000 ppm) by filling the chamber with gNO for 3 minutes. After exposure, the plates were placed in a 5% CO2, 37° C. incubator for an overnight incubation and the viability of the cells was tested via Annexin V—Propidium Iodide apoptosis-necrosis assay.

[5] = tested on: LLC1 challenge tumor; assay: Challenge assay in LLC1 tumor-bearing mice; format: in vivo; settings: 50,000 ppm NO intra-tumorally for 10 minutes; 9 days post challenge tumor inoculation
Experimental: Challenge tumor inoculation: Up to 21 days after gas treatment was applied to the primary tumor, the appropriate cancer cell suspensions were prepared as described herein and inoculation of cells was repeated on the contralateral flank of the mice. Administration was performed as soon as possible following cell suspension preparation and after manual shaking prior to withdrawal of the cell suspension.
The percentage of challenge tumor take was monitored 2-3 times a week by taking a look at the inoculated site and touching this area to look for small tumors that are not yet visible. Naïve mice inoculated with tumor cells for the first time served as an internal control.
gNO local administration was tested in a Challenge assay, as depicted in FIG. 15A, in order to evaluate whether treating the primary tumor by gNO based ablation stimulates an anti-tumor immune response that results in rejection of a secondary tumor inoculation. A secondary, “challenge”, tumor cells inoculation also serves as a metastasis model.
LLC1 tumor-bearing mice were treated with 50,000 ppm NO administered intra-tumorally by a 23G hypodermic needle for 10 minutes. Up to 2 weeks post the first gas treatment all gas-treated mice were re-inoculated with 2.5×10^5 LLC1 cells suspended in 100 μL HBSS into the left flank. Naïve mice inoculated with 5×10^5 CT-26 cells served as an internal control for cells' quality.

[6] = tested on: LLC1 cells; assay: XTT viability of LLC1 cells after gas exposure in chamber; format: cell-based; settings: 10,000 ppm-25,000 ppm gNO for 3-15 minutes
Experimental: as §1, §2, §3
as §4, with “The effect of continuous gaseous nitric oxide (gNO) at 10,000 ppm, 15,000 ppm, 20,000 ppm, or 25,000 ppm, compared to air (control), on the survival of LLC1 cancer cell line was tested. LLC1” for “B16.F10”

[7] = tested on: PC-3 cells; assay: XTT viability of PC-3 cells after direct gas exposure in 96-well plate; format: cell-based
Experimental: as §1, §2, §3
PC-3 cells were prepared in RPMI medium and suspended in four 96-well plates. The wells were exposed to the gas by a tubing that was directed at each well for 10, 60 or 180 seconds. The diameter of the gas tubing used was about 25% of the diameter of each well. Three wells were used for each gas and exposure time. The plates were placed in a 5% CO2, 37° C. incubator for 15-18 hours and the viability of the cells was tested by XTT assay.

[N]=O [gNO, nitric oxide]
pH of cell suspension comprising gNO-treated tumor cells [1]: acidic pH
viability of B16.F10 cells [2]: less than 5%
4T1 cells remain viable ([3]; 4,000-10,000 ppm gNO for 1 minute): About 60%
viability of 4T1 cells ([3]; 10,000 or 50,000 ppm gNO for 180 seconds): 1-3%
4T1 cells remained viable ([3]; 10,000 ppm or 50,000 ppm gNO for 10 seconds): less than 80%
LLC1 cells at late apoptosis [4]: 80%-90%
development of a secondary (challenge) LLC1 tumor [5]: none of the gas-treated mice developed a secondary tumor
viability of LLC1 cells [6]: less than 5%
viability of PC-3 cells ([7]; 4,000 ppm and 10,000 ppm gNO for 180 seconds): 43-48%
viability at 4000 ppm ([7]; Homo sapiens, PC-3, 1 min, 4,000 ppm, 10,000 ppm and 50,000 ppm gNO for 1 minute): 44 to 55%
viability at 4000 ppm ([7]; Homo sapiens, PC-3, 4,000 ppm, 10,000 ppm and 50,000 ppm gNO for 10 seconds): 56 to 72%
viability at 50000 ppm ([7]; Homo sapiens, PC-3, 50,000 ppm gNO for 180 seconds): ~17%
